Experimental data reported in patent US8377883B2, “Peptide for anti-angiogenesis and use thereof” (Beijing Institute for Cancer Research, priority 2006, dated 2013).

Tested on: mice liver cancer H22 cells
Assay: Tumor suppression by FpAT and derivative peptides in liver cancer H22 tumor-bearing mouse model (Example 14)
Assay type: in vivo, mice of Kunming strain
Details: peptides 50 μg/100 μl PBS/injection, angulus oculi medialis vein daily, 7 times; CTX 80 mg/KG; tumors weighed
Procedure: Ninety 5-week old mice of Kunming strain purchased from Animal Center Of Chinese Academy Of Medical Sciences were inoculated subcutaneously in forelimb with mice liver cancer H22 cells (National Institute for the Control of Pharmaceutical and Biological Products) (5×10^6/100 μl/mouse). On the next day after inoculation, each kind of inoculated cells were divided randomly into […] with 10 mice per group. FpAT (50 μg/100 μl PBS/injection) and 7 kinds of derivative peptides thereof (see Table 5 below for detailed sequence):FpAT-N3d, FpAT-N6d, FpAT-N9d, FpAT-C3d, FpAT-C6d, FpAT-C9d, FpAT-N5d-C4d, and vehicle control (PBS:100 μl/injection) were injected in angulus oculi medialis vein, with CTX (cyclophosphamide) (80 mg/KG) as positive control daily, 7 times in total. The mice were sacrificed by dislocating the neck on the next day after administration was stopped, and the tumors were taken and weighed for a statistical analysis.

Compound | tumor suppressing rate
O=P1(N(CCCl)CCCl)NCCCO1 (centres unmarked) [CTX, cyclophosphamide, reference compound] | 89.9%
H2N-Asp-Phe-Leu-Ala-Glu-Gly-COOH (H-DFLAEG-OH; listed as Homo sapiens) [FpAT-N5d-C4d] | 56.4%
H2N-Asp-Ser-Gly-Glu-Gly-Asp-COOH (H-DSGEGD-OH; listed as Homo sapiens) [FpAT-C9d] | 34.5%
H2N-Asp-Ser-Gly-Glu-Gly-Asp-Phe-Leu-Ala-COOH (H-DSGEGDFLA-OH; listed as Homo sapiens) [FpAT-C6d] | 32.3%
H2N-Asp-Ser-Gly-Glu-Gly-Asp-Phe-Leu-Ala-Glu-Gly-Gly-COOH (H-DSGEGDFLAEGG-OH; listed as Homo sapiens) [FpAT-C3d] | 46.7%
H2N-Glu-Gly-Asp-Phe-Leu-Ala-Glu-Gly-Gly-Gly-Val-Arg-COOH (H-EGDFLAEGGGVR-OH; listed as Homo sapiens) [FpAT-N3d] | 63.3%
H2N-Glu-Gly-Gly-Gly-Val-Arg-COOH (H-EGGGVR-OH; listed as Homo sapiens) [FpAT-N9d] | 34.5%
H2N-Phe-Leu-Ala-Glu-Gly-Gly-Gly-Val-Arg-COOH (H-FLAEGGGVR-OH; listed as Homo sapiens) [FpAT-N6d] | 57.6%
